12 compounds from US7348427B2, “Antipathogenic benzamide compounds” (Genesoft Pharmaceuticals, Inc., priority 2001, dated 2008) can be followed below.

In experiment [1] the test system is S. pneumoniae ATCC 49619. Nature of the experiment: MIC, NCCLS broth microdilution assay. Type of experiment: cell-based, Streptococcus pneumoniae. The conditions noted are these: H = S. pneumoniae ATCC 49619. In outline:
(§1)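 Broth microdilution per NCCLS M7-A4 (1997) guidelines; MIC recorded as minimal inhibitory concentration.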
Background: In broth dilution the organism is exposed to a series of concentrations in liquid medium.

In experiment [2] the test system is Candida albicans (ATCC 38247). The experiment in a line: Antifungal MIC assay. In kind it is cell-based. The conditions noted are these: B = C. albicans ATCC 38247. In outline:
(§2)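 MIC determined by broth microdilution in microtiter plates per NCCLS documents M7-A4, M11-A4 (1997) and M27-T (1995). Antifungal testing against the yeast followed the method recommended in the Manual of Clinical Microbiology (1995).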

Experiment [3] concerns E. faecalis ATCC 29212. The experiment in a line: MIC, NCCLS broth microdilution assay. In kind it is cell-based, Enterococcus faecalis. The settings on record: C = E. faecalis ATCC 29212. In outline: as §1
The subject of experiment [4] is Enterococcus faecium (ATCC 51559, a vancomycin resistant strain (VRE)). The experiment in a line: MIC, NCCLS broth microdilution assay. In kind it is cell-based. The conditions noted are these: D = E. faecium ATCC 51559. The method, boiled down: as §2
Experiment [5] concerns Staphylococcus epidermidis (ATCC 12228). Nature of the experiment: MIC, NCCLS broth microdilution assay. Type of experiment: cell-based. The settings on record: G = S. epidermidis ATCC 12228. In outline:
as §2

Experiment [6] relates to Staphylococcus aureus (ATCC 13709, a methicillin sensitive strain (MSSA)). Nature of the experiment: MIC, NCCLS broth microdilution assay. Type of experiment: cell-based. The conditions noted are these: E = S. aureus ATCC 13709. The method, boiled down:
as §2

The subject of experiment [7] is Staphylococcus aureus (ATCC 27660, a methicillin resistant strain (MRSA)). The experiment in a line: MIC, NCCLS broth microdilution assay. In kind it is cell-based. The settings on record: F = S. aureus ATCC 27660. The method, boiled down:
as §2

In experiment [8] the test system is Bacillus cereus (ATCC 11778). The experiment in a line: MIC, NCCLS broth microdilution assay. Type of experiment: cell-based. The conditions noted are these: A = B. cereus ATCC 11778. The method, boiled down: as §2
Experiment [9] deals with Streptococcus pneumoniae (ATCC 51422, a penicillin resistant strain (PRSP)). Nature of the experiment: MIC, NCCLS broth microdilution assay. In kind it is cell-based. The conditions noted are these: I = S. pneumoniae ATCC 51422. The method, boiled down:
as §2

Take `Cn1cc(NC(=O)c2cc(NC(=O)c3cc(NC(=O)c4ccc(Cl)cc4F)cn3C)cn2C)cc1C(=O)NCCN1CCSCC1` [Compound B-49]: the “Minimum Inhibitory Concentration (MIC)” value in experiment [1] was “+++ (+++ = MIC ≦ 4)”; in [2] it was >32 µg/mL; in [3] it was “+++ (+++ = MIC ≦ 4)”; in experiment [4] it was “+++ (+++ = MIC ≦ 4)”; in experiment [5] it was “+++ (+++ = MIC ≦ 4)”; in experiment [6] it was “+++ (+++ = MIC ≦ 4)”. Besides, the “Minimum Inhibitory Concentration (MIC)” value in experiment [7], in experiment [8] and in [9] was “+++ (+++ = MIC ≦ 4)” each time.
In the case of `Cn1cc(NC(=O)c2cc(NC(=O)c3cc(NC(=O)c4ccc(Cl)c(Cl)c4)cn3C)cn2C)cc1C(=O)NCCN1CCOCC1` [Compound B-53], the “Minimum Inhibitory Concentration (MIC)” value in experiment [1] is “+++ (+++ = MIC ≦ 4)”; in experiment [2], >32 µg/mL; in [3] it was “+++ (+++ = MIC ≦ 4)”; in experiment [4], “+++ (+++ = MIC ≦ 4)”; in [5] it was “+++ (+++ = MIC ≦ 4)”; in [6], “+++ (+++ = MIC ≦ 4)”. Besides, the “Minimum Inhibitory Concentration (MIC)” value in experiment [7], in experiment [8] and in [9] was “+++ (+++ = MIC ≦ 4)” each time.
For `Cn1cc(NC(=O)c2cc(NC(=O)c3cc(NC(=O)c4ccc(Cl)cc4)cn3C)cn2C)cc1C(=O)NCCN1CCSCC1` [Compound B-58], the “Minimum Inhibitory Concentration (MIC)” value was “+++ (+++ = MIC ≦ 4)” in experiment [1]; >32 µg/mL in experiment [2]; “+++ (+++ = MIC ≦ 4)” in experiment [3]; “+ (+ = 12 ≦ MIC ≦ 32)” in experiment [4]; “++ (++ = 4 < MIC < 12)” in [5]; “+++ (+++ = MIC ≦ 4)” in experiment [6]. Moreover, the “Minimum Inhibitory Concentration (MIC)” value in [7], in [8] and in experiment [9] was “+++ (+++ = MIC ≦ 4)” each time.
With `Cn1cc(NC(=O)c2cc(NC(=O)c3cc(NC(=O)c4ccc(Cl)cc4NCCN4CCCCC4)cn3C)cn2C)cc1C(=O)NCCN1CCCCC1` [Compound B-64], the “Minimum Inhibitory Concentration (MIC)” value in experiment [1], in [2], in [3], in experiment [4], in experiment [5] and in experiment [6] was “+++ (+++ = MIC ≦ 4)” each time. In addition, the “Minimum Inhibitory Concentration (MIC)” value in [7], in [8] and in experiment [9] was “+++ (+++ = MIC ≦ 4)” in each case.
In the case of `Cn1cc(NC(=O)c2cc(NC(=O)c3cc(NC(=O)c4ccc(C#N)cc4)cn3C)cn2C)cc1C(=O)NCCN1CCSCC1` [Compound B-68], the “Minimum Inhibitory Concentration (MIC)” value in [1] was “+++ (+++ = MIC ≦ 4)”; in [2] it was >32 µg/mL; in experiment [3] it was “+++ (+++ = MIC ≦ 4)”; in experiment [4], “+++ (+++ = MIC ≦ 4)”; in [5], “+++ (+++ = MIC ≦ 4)”; in experiment [6], “+++ (+++ = MIC ≦ 4)”. Also, the “Minimum Inhibitory Concentration (MIC)” value in experiment [7], in experiment [8] and in [9] was “+++ (+++ = MIC ≦ 4)” throughout.
In the case of `Cn1cc(NC(=O)c2cc(NC(=O)c3ccc(Cl)cc3F)c[nH]2)cc1C(=O)Nc1cc(C(=O)NCCN2CCCCC2)n(CCCO)c1` [Compound C-9], the “Minimum Inhibitory Concentration (MIC)” value in experiment [1], in [2], in experiment [3], in experiment [4], in experiment [5] and in [6] was “+++ (+++ = MIC ≦ 4)” each time. The “Minimum Inhibitory Concentration (MIC)” value in experiment [7], in experiment [8] and in experiment [9] was “+++ (+++ = MIC ≦ 4)” each time.
In the case of `CN(C)CCCn1cc(NC(=O)c2cc(NC(=O)c3cc(NC(=O)c4ccc(F)cc4F)cn3C)cn2C)cc1C(=O)NCCN1CCCCC1` [Compound D-2], the “Minimum Inhibitory Concentration (MIC)” value is given as “+++ (+++ = MIC ≦ 4)” in [1]; “+ (+ = 12 ≦ MIC ≦ 32)” in experiment [2]; “+++ (+++ = MIC ≦ 4)” in [3]; “+++ (+++ = MIC ≦ 4)” in experiment [4]; “+++ (+++ = MIC ≦ 4)” in experiment [5]; “+ (+ = 12 ≦ MIC ≦ 32)” in experiment [6]. Besides, the “Minimum Inhibitory Concentration (MIC)” value in experiment [7], in experiment [8] and in [9] was “+++ (+++ = MIC ≦ 4)” throughout.
On to `Cc1cc(NC(=O)c2cc(NC(=O)c3cc(NC(=O)c4ccc(Cl)cc4F)cn3C)cn2CCN2CCOCC2)sn1` [Compound D-8], for which the “Minimum Inhibitory Concentration (MIC)” value in experiment [1] was “+++ (+++ = MIC ≦ 4)”; in experiment [2], >32 µg/mL; in [3] it was “+++ (+++ = MIC ≦ 4)”; in experiment [4] it was “+++ (+++ = MIC ≦ 4)”; in experiment [5] it was “+++ (+++ = MIC ≦ 4)”; in experiment [6] it was “+++ (+++ = MIC ≦ 4)”. Besides, the “Minimum Inhibitory Concentration (MIC)” value in experiment [7], in experiment [8] and in experiment [9] was “+++ (+++ = MIC ≦ 4)” each time.
Turning to `Cc1cc(NC(=O)c2cc(NC(=O)c3cc(NC(=O)c4ccc(Cl)cc4F)c[nH]3)cn2CCN2CCOCC2)sn1` [Compound D-9], the “Minimum Inhibitory Concentration (MIC)” value in experiment [1] is “+++ (+++ = MIC ≦ 4)”; in experiment [2], >32 µg/mL; in experiment [3], “+++ (+++ = MIC ≦ 4)”; in experiment [4] it was “+++ (+++ = MIC ≦ 4)”; in experiment [5], “+++ (+++ = MIC ≦ 4)”; in experiment [6] it was “+++ (+++ = MIC ≦ 4)”. For the same compound, the “Minimum Inhibitory Concentration (MIC)” value in [7], in experiment [8] and in experiment [9] was “+++ (+++ = MIC ≦ 4)” throughout.
`Cc1cc(NC(=O)c2cc(NC(=O)c3cc(NC(=O)c4ccc(Cl)cc4F)c[nH]3)cn2CCN2CCCC2)sn1` [Compound D-10]: the “Minimum Inhibitory Concentration (MIC)” value in experiment [1] was “+++ (+++ = MIC ≦ 4)”; in [2] it was “++ (++ = 4 < MIC < 12)”; in experiment [3] it was “+++ (+++ = MIC ≦ 4)”; in [4] it was “+++ (+++ = MIC ≦ 4)”; in experiment [5] it was “+++ (+++ = MIC ≦ 4)”; in [6], “+++ (+++ = MIC ≦ 4)”. Moreover, the entries for the “Minimum Inhibitory Concentration (MIC)” value in [7], in experiment [8] and in experiment [9] were “+ (+ = 12 ≦ MIC ≦ 32)”, “+++ (+++ = MIC ≦ 4)” and “+++ (+++ = MIC ≦ 4)”, respectively.
As for `Cc1cc(NC(=O)c2cc(NC(=O)c3cc(NC(=O)c4ccc(Cl)cc4F)cn3C)cn2CCCN(C)C)sn1` [Compound D-12], the “Minimum Inhibitory Concentration (MIC)” value in experiment [1] is on record as “+++ (+++ = MIC ≦ 4)”; in experiment [2], “+++ (+++ = MIC ≦ 4)”; in experiment [3], “+++ (+++ = MIC ≦ 4)”; in experiment [4] it was “++ (++ = 4 < MIC < 12)”; in experiment [5], “+++ (+++ = MIC ≦ 4)”; in [6], “+++ (+++ = MIC ≦ 4)”. For the same compound, the “Minimum Inhibitory Concentration (MIC)” value in experiment [7], in experiment [8] and in [9] was “+++ (+++ = MIC ≦ 4)” in each case.
Turning to `Cn1cc(NC(=O)c2cc(NC(=O)c3ccc(Cl)cc3F)c[nH]2)cc1C(=O)Nc1cc(C(=O)NCCN2CCCCC2)n(CCN2CCOCC2)c1` [Compound D-13], the “Minimum Inhibitory Concentration (MIC)” value in [1] is “+++ (+++ = MIC ≦ 4)”; in experiment [2], “+ (+ = 12 ≦ MIC ≦ 32)”; in experiment [3] it was “+++ (+++ = MIC ≦ 4)”; in experiment [4], “++ (++ = 4 < MIC < 12)”; in experiment [5], “+++ (+++ = MIC ≦ 4)”; in [6] it was “+++ (+++ = MIC ≦ 4)”. Further, the “Minimum Inhibitory Concentration (MIC)” value in experiment [7], in experiment [8] and in experiment [9] was “+++ (+++ = MIC ≦ 4)” each time.
